Measurements as given in patent US20020086278A1, “CHROMOGENIC MEDIA CONTAINING BLOOD OR HEMIN” (priority 1999, published 2002).
Like-named read-outs stand apart in the source and are kept apart here.

Assays:
Format in all cases: cell-based
55 strains = assay: Example 3: color, hemolytic activity and growth over all 55 strains
Excerpt: Steers, E. et al., Antibiot.

[1] = test system: Aeromonas hydrophilia (aehy); assay: Example 3: colony color on chromogenic TSA II with 5% sheep blood (chromogen in medium); conditions: for Colony Color: CO2, 21 h
[2] = test system: Branhamella catarrhalis (brca); assay: as above; conditions: for Colony Color: CO2, 21 h
Candida albicans (caal) = assay: as above; conditions: for Colony Color: caal 10231, 24 h
[3] = test system: Citrobacter freundii (cifr); assay: as above
[4] = test system: Entercoccus faecalis (enfa); assay: as above
E. faecium (enfu) = assay: as above; conditions: for Colony Color: enfu 49032, 21 h
[5] = test system: E. coli (non-O157) (esco)
[6] = test system: Klebsiella pneumoniae (klpn); assay: Example 3: colony color on chromogenic TSA II with 5% sheep blood (chromogen in medium)
[7] = test system: Pseudomonas aeruginosa (psae); assay: as above; conditions: for Colony Color: CO2, 21 h
Salmonella spp. (sasp) = conditions: for Colony Color: CO2, 21 h
[8] = test system: Serratia marcescens (sema); assay: Example 3: colony color on chromogenic TSA II with 5% sheep blood (chromogen in medium); conditions: for Colony Color: sema 13880, CO2, 21 h
[9] = test system: Streptococcus agalactiae (stag); assay: as above
[10] = test system: Staphylococcus aureus (stau); assay: as above
[11] = test system: Staphylococcus Coag Neg (step); assay: as above; conditions: for Colony Color: 21 h
S. milleri (stmi) = assay: as above; conditions: for Colony Color: stmi 6249, 21 h
S. pneumoniae (stpn) = assay: as above
S pyogenes (stpy) = assay: as above; conditions: for Colony Color: 21 h
cakr 34135 = assay: as above; conditions: CO2, 21 h
milu 9341 = assay: as above; conditions: CO2, 21 h
[12] = chromogenic TSA II with 5% Sheep Blood, 0.1 g/l, 3 strains tested
[13] = chromogenic TSA II with 5% Sheep Blood, 0.1 g/l, 2 strains tested
[14] = chromogenic TSA II with 5% Sheep Blood, 0.1 g/l, 6 strains tested
[15] = chromogenic TSA II with 5% Sheep Blood, 0.1 g/l, 1 strain tested
[16] = chromogenic TSA II with 5% Sheep Blood, 0.1 g/l, 5 strains tested

SMILES: CC(C)S[C@@H]1O[C@H](CO)[C@H](O)[C@H](O)[C@H]1O [IPTG, Isopropyl-β-D-thiogalactopyranoside]
- Effect on reactivity with X-gal (55 strains; some strains): reduce the reactivity

SMILES: NC1CCCCC1.O=C(O)[C@H]1O[C@@H](Oc2c[nH]c3cc(Cl)ccc23)[C@H](O)[C@@H](O)[C@@H]1O [Sal-Glucuro, 6-Cl-3-indolyl-β-D-glucuronide (CHA salt)]
- Colony Color ([1]; aehy 7965): 0
- Colony Color ([1]; aehy 7966): 0
- Colony Color ([1]; aehy 49847): 0
- Colony Color ([2]; brca 25238): 0
- Colony Color ([2]; brca 25240): 0
- Colony Color (Candida albicans (caal); CO2): 0
- Colony Color (Candida albicans (caal); air): 0
- Colony Color ([3]; cifr 8454, CO2, 21 h): 0
- Colony Color ([3]; cifr 33128, CO2, 21 h): 0
- Colony Color ([4]; enfa 597, CO2, 21 h): 0
- Colony Color ([4]; enfa 597, air, 21 h): 0
- Colony Color ([4]; enfa 10741, CO2, 21 h): 0
- Colony Color ([4]; enfa 10741, air, 21 h): 0
- Colony Color ([4]; enfa 12953, CO2, 21 h): 0
- Colony Color ([4]; enfa 12953, air, 21 h): 0
- Colony Color ([4]; enfa 14506, CO2, 21 h): 0
- Colony Color ([4]; enfa 14506, air, 21 h): 0
- Colony Color ([4]; enfa 29212, CO2, 21 h): 0
- Colony Color ([4]; enfa 29212, CO2, 24 h): 0
- Colony Color ([4]; enfa 29212, air, 21 h): 0
- Colony Color ([4]; enfa 29212, air, 24 h): 0
- Colony Color (E. faecium (enfu); CO2): 0
- Colony Color (E. faecium (enfu); air): 0
- Colony Color ([5]; esco 11775, CO2, 21 h): 0
- Colony Color ([5]; esco 25922, CO2, 24 h): 0
- Colony Color ([5]; esco 25922, air, 24 h): 0
- Colony Color ([5]; esco 33605, CO2, 21 h): 0
- Colony Color ([6]; klpn 13883, CO2, 21 h): 0
- Colony Color ([6]; klpn 33495, CO2, 24 h): 0
- Colony Color ([6]; klpn 33495, air, 24 h): 0
- Colony Color ([6]; klpn 33606, CO2, 21 h): 0
- Colony Color ([7]; psae 9027): 0
- Colony Color ([7]; psae 15442): 0
- Colony Color ([7]; psae 33607): 0
- Colony Color (Salmonella spp. (sasp); saty 19430): 0
- Colony Color (Salmonella spp. (sasp); satym 14028): 0
- Colony Color [8]: 0
- Colony Color ([9]; stag 4768, CO2, 21 h): 0
- Colony Color ([9]; stag 4768, air, 21 h): 0
- Colony Color ([9]; stag 12386, CO2, 21 h): 0
- Colony Color ([9]; stag 12386, CO2, 24 h): gp
- Colony Color ([9]; stag 12386, air, 24 h): gp
- Colony Color ([10]; stau 1006, CO2, 21 h): 0
- Colony Color ([10]; stau 1007, CO2, 21 h): 0
- Colony Color ([10]; stau 1008, CO2, 21 h): 0
- Colony Color ([10]; stau 1009, CO2, 21 h): 0
- Colony Color ([10]; stau 25923, CO2, 24 h): 0
- Colony Color ([10]; stau 25923, air, 24 h): 0
- Colony Color ([11]; step 12228, CO2): 0
- Colony Color ([11]; step 12228, air): 0
- Colony Color ([11]; step cdc1, CO2): 0
- Colony Color ([11]; step cdc1, air): 0
- Colony Color ([11]; step cdc2, CO2): 0
- Colony Color ([11]; step cdc2, air): 0
- Colony Color ([11]; step cdc3, CO2): 0
- Colony Color ([11]; step cdc3, air): 0
- Colony Color ([11]; step cdc4, CO2): 0
- Colony Color ([11]; step cdc4, air): 0
- Colony Color (S. milleri (stmi); CO2): 0
- Colony Color (S. milleri (stmi); air): 0
- Colony Color (S. pneumoniae (stpn); stpn 1259, CO2, 21 h): 0
- Colony Color (S. pneumoniae (stpn); stpn 1260, CO2, 21 h): 0
- Colony Color (S. pneumoniae (stpn); stpn 1628, CO2, 21 h): 0
- Colony Color (S. pneumoniae (stpn); stpn 6303, CO2, 24 h): 0
- Colony Color (S. pneumoniae (stpn); stpn 6303, air, 24 h): 0
- Colony Color (S. pneumoniae (stpn); stpn 6305, CO2, 24 h): 0
- Colony Color (S. pneumoniae (stpn); stpn 6305, air, 24 h): 0
- Colony Color (S pyogenes (stpy); stpy 1027, CO2): 0
- Colony Color (S pyogenes (stpy); stpy 1028, CO2): 0
- Colony Color (S pyogenes (stpy); stpy 1029, CO2): 0
- Colony Color (S pyogenes (stpy); stpy 1030, CO2): 0
- Colony Color (S pyogenes (stpy); stpy 19615, CO2): 0
- Colony Color (S pyogenes (stpy); stpy 19615, air): 0
- Colony Color (S pyogenes (stpy); stpy 49117, CO2): 0
- Colony Color (S pyogenes (stpy); stpy 49117, air): 0
- Colony Color (S pyogenes (stpy); stpy 51339, CO2): 0
- Colony Color (S pyogenes (stpy); stpy 51339, air): 0
- Colony Color (cakr 34135): 0
- Colony Color (milu 9341): 0

SMILES: O=S(=O)([O-])Oc1c[nH]c2ccc(Br)c(Cl)c12.[K+] [X-Sulf, 5-Br-4-Cl-3-indolyl-sulfate (Potassium salt)]
- Colony Color ([1]; aehy 7965): 0
- Colony Color ([1]; aehy 7966): 0
- Colony Color ([1]; aehy 49847): 0
- Colony Color (Summary) [1, 12]: 0
- Colony Color ([2]; brca 25238): 0
- Colony Color ([2]; brca 25240): 0
- Colony Color (Summary) [2, 13]: 0
- Colony Color (Candida albicans (caal); CO2): 0
- Colony Color (Candida albicans (caal); air): 0
- Colony Color (Summary) (Candida albicans (caal); [13]): 0
- Colony Color ([3]; One strain of Citrobacter): grey blue
- Colony Color (Summary) [3, 13]: +
- Colony Color ([3]; cifr 8454, CO2, 21 h): 0
- Colony Color ([3]; cifr 33128, CO2, 21 h): gb
- Colony Color (Summary) [4, 14]: 0
- Colony Color ([4]; enfa 597, CO2, 21 h): 0
- Colony Color ([4]; enfa 597, air, 21 h): 0
- Colony Color ([4]; enfa 10741, CO2, 21 h): 0
- Colony Color ([4]; enfa 10741, air, 21 h): 0
- Colony Color ([4]; enfa 12953, CO2, 21 h): 0
- Colony Color ([4]; enfa 12953, air, 21 h): 0
- Colony Color ([4]; enfa 14506, CO2, 21 h): 0
- Colony Color ([4]; enfa 14506, air, 21 h): 0
- Colony Color ([4]; enfa 29212, CO2, 21 h): 0
- Colony Color ([4]; enfa 29212, CO2, 24 h): 0
- Colony Color ([4]; enfa 29212, air, 21 h): 0
- Colony Color ([4]; enfa 29212, air, 24 h): 0
- Colony Color (Summary) (E. faecium (enfu); [15]): 0
- Colony Color (E. faecium (enfu); CO2): 0
- Colony Color (E. faecium (enfu); air): 0
- Colony Color (Summary) [5, 12]: 0
- Colony Color ([5]; esco 11775, CO2, 21 h): 0
- Colony Color ([5]; esco 25922, CO2, 24 h): 0
- Colony Color ([5]; esco 25922, air, 24 h): 0
- Colony Color ([5]; esco 33605, CO2, 21 h): 0
- Colony Color (Summary) [6, 12]: 0
- Colony Color ([6]; klpn 13883, CO2, 21 h): 0
- Colony Color ([6]; klpn 33495, CO2, 24 h): 0
- Colony Color ([6]; klpn 33495, air, 24 h): 0
- Colony Color ([6]; klpn 33606, CO2, 21 h): 0
- Colony Color (Summary) [7, 12]: 0
- Colony Color ([7]; psae 9027): 0
- Colony Color ([7]; psae 15442): 0
- Colony Color ([7]; psae 33607): 0
- Colony Color (Summary) (Salmonella spp. (sasp); [13]): 0
- Colony Color (Salmonella spp. (sasp); saty 19430): 0
- Colony Color (Salmonella spp. (sasp); satym 14028): 0
- Colony Color (Summary) [8, 15]: 0
- Colony Color [8]: 0
- Colony Color (Summary) [9, 12]: 0
- Colony Color ([9]; stag 4768, CO2, 21 h): 0
- Colony Color ([9]; stag 4768, air, 21 h): 0
- Colony Color ([9]; stag 12386, CO2, 21 h): 0
- Colony Color ([9]; stag 12386, CO2, 24 h): 0
- Colony Color ([9]; stag 12386, air, 24 h): 0
- Colony Color (Summary) [10, 16]: 0
- Colony Color ([10]; stau 1006, CO2, 21 h): 0
- Colony Color ([10]; stau 1007, CO2, 21 h): 0
- Colony Color ([10]; stau 1008, CO2, 21 h): 0
- Colony Color ([10]; stau 1009, CO2, 21 h): 0
- Colony Color ([10]; stau 25923, CO2, 24 h): 0
- Colony Color ([10]; stau 25923, air, 24 h): 0
- Colony Color (Summary) [11, 16]: 0
- Colony Color ([11]; step 12228, CO2): 0
- Colony Color ([11]; step 12228, air): 0
- Colony Color ([11]; step cdc1, CO2): 0
- Colony Color ([11]; step cdc1, air): 0
- Colony Color ([11]; step cdc2, CO2): 0
- Colony Color ([11]; step cdc2, air): 0
- Colony Color ([11]; step cdc3, CO2): 0
- Colony Color ([11]; step cdc3, air): 0
- Colony Color ([11]; step cdc4, CO2): 0
- Colony Color ([11]; step cdc4, air): 0
- Colony Color (Summary) (S. milleri (stmi); [13]): 0
- Colony Color (S. milleri (stmi); air): 0
- Colony Color (Summary) (S. pneumoniae (stpn); [14]): 0
- Colony Color (S. pneumoniae (stpn); stpn 1259, CO2, 21 h): 0
- Colony Color (S. pneumoniae (stpn); stpn 1260, CO2, 21 h): 0
- Colony Color (S. pneumoniae (stpn); stpn 1628, CO2, 21 h): 0
- Colony Color (S. pneumoniae (stpn); stpn 6303, CO2, 24 h): 0
- Colony Color (S. pneumoniae (stpn); stpn 6303, air, 24 h): 0
- Colony Color (S. pneumoniae (stpn); stpn 6305, CO2, 24 h): 0
- Colony Color (S. pneumoniae (stpn); stpn 6305, air, 24 h): 0
- Colony Color (Summary) (S pyogenes (stpy); [14]): 0
- Colony Color (S pyogenes (stpy); stpy 1027, CO2): 0
- Colony Color (S pyogenes (stpy); stpy 1028, CO2): 0
- Colony Color (S pyogenes (stpy); stpy 1029, CO2): 0
- Colony Color (S pyogenes (stpy); stpy 1030, CO2): 0
- Colony Color (S pyogenes (stpy); stpy 19615, CO2): 0
- Colony Color (S pyogenes (stpy); stpy 19615, air): 0
- Colony Color (S pyogenes (stpy); stpy 49117, CO2): 0
- Colony Color (S pyogenes (stpy); stpy 49117, air): 0
- Colony Color (S pyogenes (stpy); stpy 51339, CO2): 0
- Colony Color (S pyogenes (stpy); stpy 51339, air): 0
- Activity (color) for most organisms (55 strains; chromogenic TSA II): inactive
- Colony Color (cakr 34135): 0
- Colony Color (milu 9341): 0
